Assays:
Trichinella spiralis = Trichinella spiralis in vitro; format: cell-based; settings: Trichina larvae from mouse muscle, incubation 5 days at 19° C.; tested at 100, 10 and 1 μm/ml
Procedure: Trichinella spiralis in vitro
(§1) Trichina lavae are isolated from mice's muscle and washed in 0.9% NaCl supplemented with 20 μg/ml sisomycin and 2 μg/ml clotrimazole. The actual incubation of approximately 20 trichinae per measurement is carried out in 2 ml of a solution composed of 10 g of Bacto Casitone, 5 g of yeast (yeast extract), 2.5 g of glucose, 0.4 g of KH2 PO4 and 0.4 g of K2 HPO4 per 500 ml, pH 7.2, containing 10 μm/ml of sisomycin and 1 μm/ml of clotrimazole. 10 mg of the substance to be tested are dissolved in 0.5 ml of DMSO, and such an amount is added to the incubation medium that the end concentration is 100, 10 and 1 μm/ml. The experiment is evaluated after incubation for 5 days at 19° C.

Heterakis spumose = Heterakis spumose in vitro test (mobility and egg excretion); format: cell-based; settings: 10 female nematodes, incubation 3 days at 37° C.
Procedure: as §1
Female Heterakis spumose nematodes are isolated from the colon and caecum of mice. 10 females are incubated for 3 days at 37° C. in 1.5 ml of medium used for the Trichinella spiarlis in-vitro test. The addition of test substances is likewise carried out as described for the trichina test. To test the anthelmintic activity, mobility and egg excretion are assessed in comparison with the control. Enniatins A1, B and B1 are active at a concentration of 10 μM/ml.

Haemonchus contortus = test: In vivo nematode test Haemonchus contortus/sheep; settings: experimentally infected sheep, oral and/or intravenous; egg excretion stopped completely after treatment
Procedure: Haemonchus contortus/sheep
Shaft which have been infected experimentally with Haemonchus contortus were treated after the prepatent time of the parasite had elapsed. The active compounds were applied orally and/or intravenously in the form of the pure active compound.
The degree of effectiveness is determined by quantitatively counting the worm eggs excreted with the faeces before and after the treatment.
If the egg excretion has stopped completely after the treatment, this means that the worms were aborted or are damaged to such an extent that they no longer produce eggs (dosis effectiva).
Active compounds tested and effective dosage rates (dosis effectiva) can be seen from the table which follows: […]

Row | SMILES | effective concentration (Trichinella spiralis) [μm/ml] | active concentration (mobility and egg excretion compared with control) (Heterakis spumose) [μM/ml] | Dosis effectiva (Haemonchus contortus) [mg/kg]
1 | CC(C)[C@H]1C(=O)O[C@H](C(C)C)C(=O)N(C)[C@@H](C(C)C)C(=O)O[C@H](C(C)C)C(=O)N(C)[C@@H](C(C)C)C(=O)O[C@H](C(C)C)C(=O)N1C [Enniatin B, enniatin B] | 100 | 10 | –
2 | CC[C@H](C)[C@H]1C(=O)O[C@H](C)C(=O)N(C)[C@@H]([C@@H](C)CC)C(=O)O[C@H](C)C(=O)N(C)[C@@H]([C@@H](C)CC)C(=O)O[C@H](C)C(=O)N1C [Example 1, Cyclo(N-methyl-L-isoleucyl-D-lactyl-N-methyl-L-isoleucyl-D-lactyl-N-methyl- L-isoleucyl-D-lactyl-)] | – | – | 5
3 | CC[C@H](C)[C@H]1C(=O)O[C@H](C(C)C)C(=O)N(C)[C@@H]([C@@H](C)CC)C(=O)O[C@H](C(C)C)C(=O)N(C)[C@@H](C(C)C)C(=O)O[C@H](C(C)C)C(=O)N1C [Enniatin A1, enniatin A1] | 100 | 10 | –
4 | CC[C@H](C)[C@H]1C(=O)O[C@H](C(C)C)C(=O)N(C)[C@@H](C(C)C)C(=O)O[C@H](C(C)C)C(=O)N(C)[C@@H](C(C)C)C(=O)O[C@H](C(C)C)C(=O)N1C [Enniatin B1, enniatin B1] | 100 | 10 | –
